Results from ChEMBL document CHEMBL5674860, “Optimized Dual-Glo Assay to identify co-culture-induced drug vulnerabilities in 3D CRC models” (2024).

How the values were obtained:
Assay type in all cases: functional, Homo sapiens
Set-up in all cases: dose or concentration left out as unconfirmed
Colon cancer organoid [1] = assay: Optimized Dual-Glo assay to identify co-culture induced drug vulnerabilities using donated chemical probes and chemogenomics kinase set in O14 CRC organoid and F14 CAF mono and co-culture. […] Cell viability is reported both mono and co-culture models.
Colon cancer organoid [2] = assay: Optimized Dual-Glo assay to identify co-culture induced drug vulnerabilities using donated chemical probes and chemogenomics kinase set in O06 CRC organoid and F06 CAF mono and co-culture. […] Cell viability is reported both mono and co-culture models.
Colon cancer organoid [3] = assay: Optimized Dual-Glo assay to identify co-culture induced drug vulnerabilities using donated chemical probes and chemogenomics kinase set in O20 CRC organoid and F20 CAF mono and co-culture. […] Cell viability is reported both mono and co-culture models.
[4] = Culture type Co-Culture, Transduced with Lucferase2-P2A-EGFP lentivirus
[5] = Culture type Co-Culture, Transduced with Renilla-dsRed lentivirus
[6] = Culture type Mono-Culture, Transduced with Lucferase2-P2A-EGFP lentivirus
[7] = Culture type Mono-Culture, Transduced with Renilla-dsRed lentivirus

| SMILES | Cell Viability (Colon cancer organoid [1]; [4]) [%] | Cell Viability (Colon cancer organoid [1]; [5]) [%] | Cell Viability (Colon cancer organoid [1]; [6]) [%] | Cell Viability (Colon cancer organoid [1]; [7]) [%] | Cell Viability (Colon cancer organoid [2]; [4]) [%] | Cell Viability (Colon cancer organoid [2]; [5]) [%] | Cell Viability (Colon cancer organoid [2]; [6]) [%] | Cell Viability (Colon cancer organoid [2]; [7]) [%] | Cell Viability (Colon cancer organoid [3]; [4]) [%] | Cell Viability (Colon cancer organoid [3]; [5]) [%] | Cell Viability (Colon cancer organoid [3]; [6]) [%] | Cell Viability (Colon cancer organoid [3]; [7]) [%] |
| --- | --- | --- | --- | --- | --- | --- | --- | --- | --- | --- | --- | --- |
| CC(C)(C)c1cc(NC(=O)Nc2ccc(-c3cn4c(n3)sc3cc(OCCN5CCOCC5)ccc34)cc2)no1 [QUIZARTINIB] | 40.6861 | 210.95 | 46.4384 | 89.2922 | 26.1053 | 134.448 | 20.7828 | 88.706 | 58.7644 | 111.29 | 48.0043 | 98.7475 |
| O=C1CCc2cc(Nc3cc(OC4CCOCC4)c([N+](=O)[O-])cc3Cl)ccc2N1 | 95.0687 | 106.674 | 142.925 | 117.869 | 112.978 | 126.115 | 116.283 | 106.249 | 150.133 | 114.972 | 136.194 | 114.49 |
| CCc1cccc(CC)c1NC(=O)c1nn(C)c2c1CCc1cnc(Nc3ccc(C(=O)NC4CCN(C)CC4)cc3OC(F)(F)F)nc1-2 | 20.0347 | 229.301 | 20.3776 | 93.7404 | 8.756 | 150.393 | 5.577 | 91.0019 | 94.4005 | 107.437 | 25.0865 | 90.076 |
| CC(=O)Nc1c(C(C)=O)c(=O)n(C)c2nc(-c3ccc(Cl)cc3Cl)c(-c3ccc(Cl)cc3)cc12 [NAPHTHYRIDINONE] | 70.6421 | 119.606 | 87.1663 | 99.5027 | 144.905 | 170.157 | 100.862 | 101.001 | 105.882 | 98.6055 | 84.0394 | 82.777 |
| N#CN1CC[C@H](C(=O)Nc2nc3c(s2)CN(C(=O)CN=[N+]=[N-])CC3)C1 [8RK64] | 91.8118 | 102.385 | 81.5329 | 88.8457 | 104.648 | 104.354 | 102.804 | 85.3904 | 67.2995 | 105.29 | 57.1131 | 75.6901 |
| Cn1cncc1[C@@](O)(COc1ccc(C#N)cc1-c1ccc(OC(F)(F)F)cc1)c1ccc(C#N)cc1 [A-108] | 57.9117 | 92.8032 | 90.1674 | 97.2035 | 113.578 | 151.877 | 88.7228 | 108.002 | 89.1467 | 110.638 | 65.4211 | 112.38 |
| O=C(/C=C/N1C[C@H]2C[C@@H]1CN2c1ccccn1)c1ccccc1O | 76.8483 | 107.425 | 87.3467 | 104.591 | 122.112 | 121.159 | 115.481 | 98.9347 | 98.7098 | 109.392 | 120.989 | 80.1119 |
| CN(C)C(=O)N1CC[C@H](NC2=Nc3cc(F)ccc3N(CC(F)F)c3ccc(Cl)cc32)C1 | 130.518 | 98.5664 | 108.387 | 90.4728 | 158.864 | 159.783 | 102.875 | 125.077 | 71.357 | 98.2431 | 112.934 | 109.328 |
| Cn1nc(C(F)(F)F)cc1-c1cnc(N2CCc3cc(S(=O)(=O)Nc4c(F)cc(Cl)cc4F)cc(N4CCCC4=O)c32)nc1 [TP-020] | 84.372 | 107.562 | 84.9301 | 79.7114 | 112.159 | 131.656 | 120.125 | 102.548 | 86.7802 | 95.2287 | 142.794 | 105.743 |
| OCCn1cc(-c2ccc3c(c2)CCC3=NO)c(-c2ccncc2)n1 | 155.629 | 130.506 | 186.115 | 118.266 | 81.3359 | 109.303 | 157.495 | 121.815 | 201.802 | 70.8995 | 81.9137 | 103.135 |
| Cc1nccc(COC(=O)N2C[C@@H]3[C@@H](CNC(=O)c4ccc5[nH]nnc5c4)[C@@H]3C2)n1 [BI 3017] | 93.935 | 119.587 | 137.729 | 94.2589 | 136.883 | 128.292 | 95.2629 | 74.0867 | 107.028 | 99.2728 | 143.356 | 100.924 |
| CC[C@H](CC(=O)O)n1c(=O)c2ncccc2n(Cc2cn(C)c3cc(C)cc(C)c23)c1=O [BI-1942] | 138.147 | 85.0736 | 117.29 | 91.8874 | 119.907 | 136.619 | 121.189 | 103.918 | 107.514 | 100.799 | 88.7956 | 92.5825 |
| COc1ccccc1-c1cc(Nc2cccc(CS(N)(=O)=O)c2)ncn1 | 107.839 | 92.9577 | 111.603 | 77.4194 | 105.6 | 95.8866 | 67.576 | 79.9168 | 104.861 | 97.4583 | 84.7968 | 76.3761 |
| Cn1cc(CCn2cnc(-c3cnn(C)c3)c2-c2ccc(C#N)cc2)cn1 | 112.655 | 89.8106 | 89.6485 | 97.1773 | 101.212 | 117.261 | 137.811 | 99.9578 | 162.016 | 107.326 | 101.421 | 89.845 |
| CN(C)C(=O)c1ccc(-c2cc(C(=O)N[C@@H]3CCc4ccccc43)no2)cc1O | 73.2649 | 147.75 | 80.1245 | 134.73 | 113.879 | 93.2478 | 92.6679 | 134.315 | 98.4389 | 104.475 | 121.813 | 120.44 |
| CCCc1cc(C)[nH]c(=O)c1CNC(=O)c1cc(-c2ccnc(N3CCN(C)CC3)c2)cc2c1cnn2C(C)C | 90.4891 | 115.464 | 111.507 | 115.721 | 75.6598 | 125.188 | 109.33 | 104.205 | 55.9892 | 146.305 | 86.0915 | 120.133 |
| FC(F)c1nc2ccccc2n1-c1nc(N2CCOCC2)nc(N2CCOCC2)n1 [ZSTK-474] | 66.4922 | 94.4439 | 94.5351 | 81.6405 | 29.4296 | 101.088 | 21.0208 | 93.8001 | 123.987 | 95.7276 | 79.3506 | 60.5776 |
| Cc1c(NC(=O)c2cc(C(N)=O)nc3cc(F)ccc23)c(C(F)(F)F)nn1Cc1ccc(C#N)cc1 [BAY-876] | 22.1239 | 120.557 | 31.4127 | 63.4994 | 9.2808 | 424.118 | 4.84 | 74.218 | 13.842 | 190.785 | 15.2674 | 77.5911 |
